Like-named read-outs stand apart in the source and are kept apart here.
Experiments:
μ-opioid receptor [1] = target: T1, μ-opioid receptor (Homo sapiens, UniProt P35372); test: μ-opioid receptor radioligand binding assay ([3H]-diprenorphine); design: purchased Perkin Elmer, Shelton, Conn; host or cells: HEK-293 or CHO
Experimental: μ-opioid Receptor Binding Assay Procedures: Radioligand dose-displacement binding assays for μ-opioid receptors used 0.3 nM [^3H]-diprenorphine (Perkin Elmer, Shelton, Conn.), with […] membrane protein/well in a final volume of 500 μl binding buffer (10 mM MgCl2, 1 mM EDTA, 5% DMSO, 50 mM HEPES, pH 7.4). Reactions were carried out in the absence or presence of increasing concentrations of unlabeled naloxone. All reactions were conducted in 96-deep well polypropylene plates for 2 hr at room temperature. […] The data were analyzed using the one-site competition curve fitting functions in GraphPad PRISM™ v. 3.0 or higher (San Diego, Calif.), or an in-house function for one-site competition curve-fitting.

κ-opioid receptor [2] = target: T2, κ-opioid receptor (Homo sapiens, UniProt P41145); test: κ-opioid receptor radioligand binding assay ([3H]-U69,593); design: expressed in transfected cells; host or cells: HEK-293
T2 sequence (P41145 whole entry): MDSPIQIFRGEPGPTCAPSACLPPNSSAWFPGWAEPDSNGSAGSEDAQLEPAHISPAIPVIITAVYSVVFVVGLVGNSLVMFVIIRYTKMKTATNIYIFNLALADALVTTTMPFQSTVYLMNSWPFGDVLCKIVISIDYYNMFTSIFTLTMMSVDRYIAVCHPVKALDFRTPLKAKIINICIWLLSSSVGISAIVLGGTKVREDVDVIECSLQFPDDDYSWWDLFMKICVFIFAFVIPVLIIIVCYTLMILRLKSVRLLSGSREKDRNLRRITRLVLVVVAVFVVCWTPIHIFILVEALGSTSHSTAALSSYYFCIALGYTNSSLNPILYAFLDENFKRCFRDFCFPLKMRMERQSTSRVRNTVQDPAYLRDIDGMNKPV
Experimental: κ-opioid Receptor Binding Assay Procedures: Membranes from recombinant HEK-293 cells expressing the human κ opioid receptor (κ) (cloned in house) were prepared by lysing cells in ice cold hypotonic buffer (2.5 mM MgCl2, 50 mM HEPES, pH 7.4) (10 mL/10 cm dish) followed by homogenization with a tissue grinder/Teflon pestle. Membranes were collected by centrifugation at 30,000×g for 15 min at 4° C. and pellets were resuspended in hypotonic buffer to a final concentration of 1-3 mg/mL. Protein concentrations were determined using the BioRad protein assay reagent with bovine serum albumen as standard. Aliquots of κ receptor membranes were stored at −80° C.
Radioligand dose displacement assays used 0.4 nM [^3H]-U69,593 (GE Healthcare, Piscataway, N.J.; 40 Ci/mmole) with 15 μg membrane protein (recombinant κ opioid receptor expressed in HEK 293 cells; in-house prep) in a final volume of 200 μl binding buffer (5% DMSO, 50 mM Trizma base, pH 7.4). Non-specific binding was determined in the presence of 10 μM unlabeled naloxone or U69,593. All reactions were performed in 96-well polypropylene plates for 1 hr at a temperature of about 25° C.

μ-opioid receptor [3] = target: T1, μ-opioid receptor; test: cell-based; design: purchased Perkin Elmer, Shelton, Conn; conditions: U2OS cells; read-out: β-Arr2 μ Emax
μ-opioid receptor [4] = target: T1, μ-opioid receptor; test: μ-opioid receptor GTPγS functional assay, U2OS cells; conditions: for Emax: read-out: GTPγS μ Emax
κ-opioid receptor [5] = target: T2, κ-opioid receptor; test: κ-opioid receptor [35S]GTPγS functional assay, HEK-293 or CHO cells; assay type: biochemical; design: expressed in transfected cells; host or cells: HEK-293; conditions: for Emax: relative to U69,593
Experimental: (§1) Plates were incubated for 30 min at a temperature of about 25° C. with shaking.

κ-opioid receptor [6] = target: T2, κ-opioid receptor; test: κ-opioid receptor GTPγS functional assay, U2OS cells; assay type: biochemical; design: expressed in transfected cells; host or cells: U-2 OS
Experimental: as §1

κ-opioid receptor [7] = target: T2, κ-opioid receptor; test: κ-opioid receptor β-Arr2 activity response, U2OS cells; assay type: cell-based; design: expressed in transfected cells; host or cells: U-2 OS
μ-opioid receptor [8] = target: T1, μ-opioid receptor; test: biochemical; design: purchased Perkin Elmer, Shelton, Conn; host or cells: HEK-293 or CHO; conditions: HEK-293 or CHO cells; for Emax: relative to DAMGO, read-out: GTPγS μ Emax; for EC50: read-out: GTPγS μ EC50
[9] = HEK-293 or CHO cells, read-out: Ki (nM) Opioid Receptor μ
[10] = HEK-293 or CHO cells, read-out: Ki (nM) Opioid Receptor κ
[11] = HEK-293 or CHO cells, read-out: GTPγS κ EC50
[12] = U2OS cells, read-out: GTPγS κ EC50
[13] = U2OS cells, read-out: β-Arr2 κ EC50

T1 sequence (P35372 whole entry, species assumed): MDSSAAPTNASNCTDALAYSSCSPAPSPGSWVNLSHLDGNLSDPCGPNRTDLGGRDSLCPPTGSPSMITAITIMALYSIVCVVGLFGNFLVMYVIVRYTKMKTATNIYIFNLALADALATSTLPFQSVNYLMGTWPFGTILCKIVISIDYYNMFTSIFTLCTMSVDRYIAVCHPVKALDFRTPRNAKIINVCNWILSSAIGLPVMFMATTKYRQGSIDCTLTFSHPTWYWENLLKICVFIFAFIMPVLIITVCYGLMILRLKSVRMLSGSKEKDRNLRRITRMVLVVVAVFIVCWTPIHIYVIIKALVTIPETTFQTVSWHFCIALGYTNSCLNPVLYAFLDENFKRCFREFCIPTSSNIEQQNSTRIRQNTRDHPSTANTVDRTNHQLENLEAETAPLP

Structure (SMILES)	Ki (μ-opioid receptor [1]; [9])	Ki (κ-opioid receptor [2]; [10])	Emax (μ-opioid receptor [3])	EC50 (μ-opioid receptor [4])	Emax (μ-opioid receptor [4])	EC50 (κ-opioid receptor [5]; [11])	Emax (κ-opioid receptor [5]; HEK-293 or CHO cells)	Emax (κ-opioid receptor [6]; U2OS cells)	EC50 (κ-opioid receptor [6]; [12])	Emax (κ-opioid receptor [7]; U2OS cells)	EC50 (κ-opioid receptor [7]; [13])	Emax (μ-opioid receptor [8])	Ki (μ-opioid receptor [1])	Ki (κ-opioid receptor [2])	EC50 (κ-opioid receptor [5])	EC50 (κ-opioid receptor [6])	EC50 (κ-opioid receptor [7])	EC50 (μ-opioid receptor [8])
COC(=O)[C@H](CCCCN)NCCCC[C@]12CCN(CC3CC3)[C@H](Cc3ccc(O)cc31)[C@@H]2C [Compound 26, methyl (4-((2R,6R,11R)-3-(cyclopropyl-methyl)-8-hydroxy-11-methyl-2,3,4,5-tetrahydro-2,6-methanobenzo[d]azocin-6(1H)-yl)butyl)-L-lysinate]	0.73 ± 0.1 nM	0.053 nM	0%	0.51 ± 0.054 nM	40 ± 1.73%	0.19 ± 0.058 nM	51 ± 2.04%	102 ± 3.48%	0.14 nM	17.5 ± 2.72%	0.081 ± 0.019 nM	0.33 ± 0.67%	–	–	–	–	–	–
C[C@H]1[C@H]2Cc3ccc(O)cc3[C@]1(CCCCN[C@@H](CCCCN)C(=O)O)CCN2CC1CC1 [Compound 25, (4-((2R,6R,11R)-3-(cyclopropyl-methyl)-8-hydroxy-11-methyl-2,3,4,5-tetrahydro-2,6-methanobenzo[d]azocin-6(1H)-yl)butyl)-L-lysine]	3.58 ± 1.45 nM	0.077 ± 0.014 nM	-1.4%	1.29 ± 0.11 nM	48.3 ± 0.67%	2.33 ± 0.51 nM	104 ± 5.03%	99 ± 4.58%	0.17 ± 0.038 nM	50 ± 0.58%	0.1 ± 0.019 nM	1%	–	–	–	–	–	–
COc1ccc2c(c1)[C@]1(CCO)CCN(CC3CC3)[C@H](C2)[C@@H]1C [Compound 43, 2-((2R,6S,11R)-3-(cyclopropylmethyl)-8-methoxy-11-methyl-2,3,4,5-tetrahydro-2,6-methanobenzo[d]azocin-6(1H)-yl)ethan-1-ol]	–	–	-1%	99 ± 5.84 nM	107 ± 5.83%	–	97.7 ± 5.36%	102 ± 3.71%	–	59.3 ± 3.18%	–	22 ± 1.58%	233 ± 46.9 nM	3.63 ± 0.7 nM	355 ± 63.6 nM	17.8 ± 1.45 nM	494 ± 140 nM	1150 ± 199 nM
CC(C)C[C@H](NCCCC[C@]12CCN(CC3CC3)[C@H](Cc3ccc(O)cc31)[C@@H]2C)C(=O)O [Compound 24, (4-((2R,6R,11R)-3-(cyclopropyl-methyl)-8-hydroxy-11-methyl-2,3,4,5-tetrahydro-2,6-methanobenzo[d]azocin-6(1H)-yl)butyl)-L-leucine]	2.89 ± 0.63 nM	0.55 ± 0.11 nM	-0.4 ± 0.6%	1.94 ± 0.28 nM	77.3 ± 3.18%	9.32 ± 2.97 nM	102 ± 5.57%	98.3 ± 4.33%	0.51 ± 0.072 nM	54 ± 4.06%	3.56 ± 0.91 nM	19.5 ± 2.26%	–	–	–	–	–	5.46 ± 0.51 nM
COc1ccc2c(c1)[C@]1(CCNC3(C(=O)O)CC3)CCN(CC3CC3)[C@H](C2)[C@@H]1C [Compound 34, 1-((2-((2R,6R,11R)-3-(cyclopropyl-methyl)-8-methoxy-11-methyl-2,3,4,5-tetrahydro-2,6-methanobenzo[d]azocin-6(1H)-yl)ethyl)amino)cyclopropane-1-carboxylic acid]	1470 ± 177 nM	286 ± 2.93 nM	–	–	–	7900 ± 2010 nM	81.3 ± 10.2%	–	–	–	–	70.3 ± 3.71%	–	–	–	–	–	2880 ± 310 nM
COc1ccc2c(c1)[C@]1(CCN[C@@H](C)C(=O)O)CCN(CC3CC3)[C@H](C2)[C@@H]1C [Compound 40, (2-((2R,6R,11R)-3-(cyclopropyl-methyl)-8-methoxy-11-methyl-2,3,4,5-tetrahydro-2,6-methanobenzo[d]azocin-6(1H)-yl)ethyl)-L-ananine]	871 ± 211 nM	248 ± 95.7 nM	–	–	–	7890 ± 1340 nM	86.3 ± 7.54%	115 ± 1.73%	542 ± 13.1 nM	–	–	77.7 ± 6.12%	–	–	–	–	–	1660 ± 245 nM
COc1ccc2c(c1)[C@]1(CCNCC(=O)O)CCN(CC3CC3)[C@H](C2)[C@@H]1C [Compound 36, (2-((2R,6R,11R)-3-(cyclopropyl-methyl)-8-methoxy-11-methyl-2,3,4,5-tetrahydro-2,6-methanobenzo[d]azocin-6(1H)-yl)ethyl)glycine]	1020 ± 51.3 nM	133 ± 22.9 nM	–	–	–	1980 ± 216 nM	69 ± 6.24%	–	–	–	–	39 ± 1.53%	–	–	–	–	–	798 ± 24.1 nM
CC(C)[C@H](NCC[C@@]12CCN(CC3CC3)[C@@H](Cc3ccc(O)cc31)[C@H]2C)C(=O)O [Compound 42, (2-((2S,6S,11S)-3-(cyclopropylmethyl)-8-hydroxy-11-methyl-2,3,4,5-tetrahydro-2,6-methanobenzo[d]azocin-6(1H)-yl)ethyl)-L-valine]	4610 ± 551 nM	2620 ± 729 nM	–	–	–	–	–	–	–	–	–	56 ± 2.52%	–	–	–	–	–	2390 ± 230 nM
COc1ccc2c(c1)[C@@]1(CCOCc3ccccc3)CCN(CC3CC3)[C@@H](C2)[C@H]1C [Compound 44, (2S,6R,11S)-6-(2-(benzyloxy)ethyl)-3-(cyclopropylmethyl)-8-methoxy-11-methyl-1,2,3,4,5,6-hexahydro-2,6-methanobenzo[d]azocine]	1840 ± 222 nM	118 ± 8.52 nM	–	–	–	854 ± 240 nM	32 ± 0.58%	79.3 ± 3.38%	327 ± 50.5 nM	102 ± 11.6%	10300 ± 1050 nM	–	–	–	–	–	–	–
COc1ccc2c(c1)[C@]1(CCNC(=O)CN)CCN(CC3CC3)[C@H](C2)[C@@H]1C [Compound 33, 2-amino-N-(2-((2R,6R,11R)-3-(cyclopropylmethyl)-8-methoxy-11-methyl-2,3,4,5-tetrahydro-2,6-methanobenzo[d]azocin-6(1H)-yl)ethyl)acetamide]	936 ± 189 nM	1.04 ± 0.071 nM	–	1170 ± 247 nM	56 ± 3.06%	61.2 ± 20.1 nM	113 ± 1%	108 ± 3.38%	4.93 ± 1.06 nM	42 ± 4%	12.8 ± 4.1 nM	92.7 ± 6.57%	–	–	–	–	–	356 ± 111 nM
COC(=O)[C@@H](NCC[C@@]12CCN(CC3CC3)[C@@H](Cc3ccc(OC)cc31)[C@H]2C)C(C)C [Compound 37, methyl (2-((2S,6S,11S)-3-(cyclopropyl-methyl)-8-methoxy-11-methyl-2,3,4,5-tetrahydro-2,6-methanobenzo[d]azocin-6(1H)-yl)ethyl)-L-valinate]	13900 nM	8990 ± 2060 nM	–	–	–	–	–	–	–	–	–	19.3 ± 2.33%	–	–	–	–	–	9390 ± 820 nM

Reference: patent publication US10130615B2, “Benzomorphan analogs and the use thereof” (priority 2014, dated 2018)
